Experimental data: ChEMBL document CHEMBL1212896, “Discovery of novel cyanodihydropyridines as potent mineralocorticoid receptor antagonists” (J Med Chem, 2010)
pIC50: −log10 of the molar value. Converted amounts (≈) assume the structure as drawn.

Columns and labels:
[1] = biological target: Cytochrome P450 3A4 (Homo sapiens, UniProt P08684); test: Inhibition of CYP3A4; assay type: ADME
[2] = biological target: Cytochrome P450 2C9 (Homo sapiens, UniProt P11712); test: Inhibition of CYP2C9; assay type: ADME
Cytochrome P450 2C9, sequence (P11712 whole entry): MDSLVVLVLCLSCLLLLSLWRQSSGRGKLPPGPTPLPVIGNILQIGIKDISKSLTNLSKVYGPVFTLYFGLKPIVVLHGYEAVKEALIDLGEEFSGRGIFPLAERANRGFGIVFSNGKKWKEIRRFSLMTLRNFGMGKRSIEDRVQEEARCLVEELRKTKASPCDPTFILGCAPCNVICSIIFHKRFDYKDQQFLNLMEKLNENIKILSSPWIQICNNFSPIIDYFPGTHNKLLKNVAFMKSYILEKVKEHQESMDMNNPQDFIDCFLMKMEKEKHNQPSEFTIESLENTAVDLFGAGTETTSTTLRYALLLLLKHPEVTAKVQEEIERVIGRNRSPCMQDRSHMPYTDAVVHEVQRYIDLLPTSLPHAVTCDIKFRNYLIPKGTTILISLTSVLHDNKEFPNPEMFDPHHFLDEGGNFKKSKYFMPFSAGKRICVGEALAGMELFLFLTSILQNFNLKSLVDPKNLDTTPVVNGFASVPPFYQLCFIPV

[3] = test system: Liver microsomes; test: Metabolic stability in rat liver microsomes assessed as compound remaining; assay type: ADME, Microsome; also: time not given here
[4] = Solubility of the compound; assay type: physicochemical
[5] = biological target: T1, Glucocorticoid receptor (Homo sapiens, UniProt P04150); test: Antagonist activity at glucocorticoid receptor LBD expressed in human HUH7 cells coexpressing GAL4 by luciferase reporter gene assay; assay type: functional, cell-based, Huh-7
T1 sequence (P04150 whole entry): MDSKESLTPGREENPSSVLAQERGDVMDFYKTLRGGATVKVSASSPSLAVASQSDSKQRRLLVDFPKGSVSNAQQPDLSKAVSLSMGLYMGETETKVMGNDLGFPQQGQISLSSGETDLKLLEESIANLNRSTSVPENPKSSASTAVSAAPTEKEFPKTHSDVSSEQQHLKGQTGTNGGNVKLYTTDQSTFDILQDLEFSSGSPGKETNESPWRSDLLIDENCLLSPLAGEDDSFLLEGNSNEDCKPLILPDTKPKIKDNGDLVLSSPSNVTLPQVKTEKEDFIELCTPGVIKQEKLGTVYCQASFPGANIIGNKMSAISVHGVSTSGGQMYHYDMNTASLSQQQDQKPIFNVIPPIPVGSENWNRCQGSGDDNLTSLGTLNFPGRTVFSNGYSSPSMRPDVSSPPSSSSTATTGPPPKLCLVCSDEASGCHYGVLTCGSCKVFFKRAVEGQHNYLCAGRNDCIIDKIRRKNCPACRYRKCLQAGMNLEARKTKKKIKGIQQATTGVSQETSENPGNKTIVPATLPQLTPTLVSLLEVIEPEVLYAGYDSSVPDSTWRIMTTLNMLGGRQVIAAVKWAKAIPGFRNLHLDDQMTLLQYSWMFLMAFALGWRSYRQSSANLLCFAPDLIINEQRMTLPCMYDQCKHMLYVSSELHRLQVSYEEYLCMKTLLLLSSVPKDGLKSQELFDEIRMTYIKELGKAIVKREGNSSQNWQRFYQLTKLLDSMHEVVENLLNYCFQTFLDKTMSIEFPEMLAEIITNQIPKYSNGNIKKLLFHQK

[6] = biological target: T2, Androgen receptor (Homo sapiens, UniProt P10275); test: Antagonist activity at androgen receptor LBD expressed in human HUH7 cells coexpressing GAL4 by luciferase reporter gene assay; assay type: functional, cell-based, Huh-7
T2 sequence (P10275 whole entry): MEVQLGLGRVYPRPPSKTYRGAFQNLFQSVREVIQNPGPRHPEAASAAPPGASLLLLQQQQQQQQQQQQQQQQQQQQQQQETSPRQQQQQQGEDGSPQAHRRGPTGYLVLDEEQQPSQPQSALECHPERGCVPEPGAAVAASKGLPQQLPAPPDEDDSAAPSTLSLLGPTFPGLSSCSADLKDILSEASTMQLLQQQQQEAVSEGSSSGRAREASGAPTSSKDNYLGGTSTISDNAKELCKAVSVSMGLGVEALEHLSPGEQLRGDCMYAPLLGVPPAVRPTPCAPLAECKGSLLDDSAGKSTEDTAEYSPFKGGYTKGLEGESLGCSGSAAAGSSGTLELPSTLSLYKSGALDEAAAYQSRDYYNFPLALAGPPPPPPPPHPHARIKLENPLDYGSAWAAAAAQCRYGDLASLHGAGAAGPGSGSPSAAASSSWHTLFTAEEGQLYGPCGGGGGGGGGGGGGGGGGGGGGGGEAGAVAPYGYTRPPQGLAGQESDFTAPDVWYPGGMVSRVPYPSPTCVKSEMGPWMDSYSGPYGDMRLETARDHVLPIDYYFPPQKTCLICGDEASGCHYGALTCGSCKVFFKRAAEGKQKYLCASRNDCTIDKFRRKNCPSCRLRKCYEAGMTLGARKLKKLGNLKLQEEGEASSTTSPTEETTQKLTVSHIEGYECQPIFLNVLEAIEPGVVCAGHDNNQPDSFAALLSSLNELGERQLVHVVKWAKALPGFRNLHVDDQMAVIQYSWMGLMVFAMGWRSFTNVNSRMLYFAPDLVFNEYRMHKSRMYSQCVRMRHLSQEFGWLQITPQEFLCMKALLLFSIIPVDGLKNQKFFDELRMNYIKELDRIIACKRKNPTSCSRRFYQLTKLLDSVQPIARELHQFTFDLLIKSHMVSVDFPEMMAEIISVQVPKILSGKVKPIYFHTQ

[7] = biological target: T3, Progesterone receptor (Homo sapiens, UniProt P06401); test: Antagonist activity at progesterone receptor LBD expressed in human HUH7 cells coexpressing GAL4 by luciferase reporter gene assay; assay type: functional, cell-based, Huh-7
T3 sequence (P06401 whole entry): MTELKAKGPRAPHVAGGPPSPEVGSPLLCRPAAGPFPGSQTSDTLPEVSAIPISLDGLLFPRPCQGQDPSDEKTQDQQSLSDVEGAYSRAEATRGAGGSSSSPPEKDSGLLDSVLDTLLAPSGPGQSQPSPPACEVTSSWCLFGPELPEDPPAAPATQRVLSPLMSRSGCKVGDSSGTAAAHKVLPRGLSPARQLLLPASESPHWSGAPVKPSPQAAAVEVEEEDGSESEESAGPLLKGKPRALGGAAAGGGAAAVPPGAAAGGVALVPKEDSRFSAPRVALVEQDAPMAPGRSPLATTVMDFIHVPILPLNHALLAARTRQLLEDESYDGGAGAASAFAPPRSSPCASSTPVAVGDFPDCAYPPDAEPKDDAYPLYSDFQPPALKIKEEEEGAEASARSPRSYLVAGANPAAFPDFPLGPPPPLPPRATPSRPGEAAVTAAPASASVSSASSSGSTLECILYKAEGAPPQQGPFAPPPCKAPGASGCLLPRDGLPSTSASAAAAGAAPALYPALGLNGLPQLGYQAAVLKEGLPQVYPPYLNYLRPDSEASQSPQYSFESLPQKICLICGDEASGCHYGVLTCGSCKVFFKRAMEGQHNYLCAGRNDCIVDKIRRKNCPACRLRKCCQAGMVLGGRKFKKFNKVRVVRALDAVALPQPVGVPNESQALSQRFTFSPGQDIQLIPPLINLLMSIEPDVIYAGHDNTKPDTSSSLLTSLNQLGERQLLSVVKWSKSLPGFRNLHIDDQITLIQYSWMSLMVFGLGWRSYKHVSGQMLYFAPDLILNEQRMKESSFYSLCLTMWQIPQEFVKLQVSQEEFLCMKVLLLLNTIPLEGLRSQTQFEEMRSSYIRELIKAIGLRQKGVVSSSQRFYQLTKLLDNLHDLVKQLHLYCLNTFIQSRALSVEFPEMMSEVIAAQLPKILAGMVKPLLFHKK

[8] = test system: Liver microsomes; test: Metabolic stability in human liver microsomes assessed as compound remaining; assay type: ADME, Microsome; also: time not given here
[9] = biological target: Cytochrome P450 2D6 (Homo sapiens, UniProt P10635); test: Inhibition of CYP2D6; assay type: ADME
Cytochrome P450 2D6, sequence (P10635 whole entry): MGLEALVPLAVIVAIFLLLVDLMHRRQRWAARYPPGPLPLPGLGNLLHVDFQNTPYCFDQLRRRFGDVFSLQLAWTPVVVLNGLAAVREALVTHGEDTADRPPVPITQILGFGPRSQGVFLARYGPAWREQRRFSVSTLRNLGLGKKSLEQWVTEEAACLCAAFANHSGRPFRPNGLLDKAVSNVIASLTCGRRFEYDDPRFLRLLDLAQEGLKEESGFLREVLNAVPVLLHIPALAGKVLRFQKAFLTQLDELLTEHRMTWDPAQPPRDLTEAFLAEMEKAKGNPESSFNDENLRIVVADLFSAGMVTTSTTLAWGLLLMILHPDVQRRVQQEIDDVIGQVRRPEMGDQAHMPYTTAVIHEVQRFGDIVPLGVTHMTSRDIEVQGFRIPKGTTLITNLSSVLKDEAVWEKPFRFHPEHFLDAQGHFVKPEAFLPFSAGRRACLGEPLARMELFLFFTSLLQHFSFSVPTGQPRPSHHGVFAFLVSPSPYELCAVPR

Cytochrome P450 3A4, sequence (P08684 whole entry): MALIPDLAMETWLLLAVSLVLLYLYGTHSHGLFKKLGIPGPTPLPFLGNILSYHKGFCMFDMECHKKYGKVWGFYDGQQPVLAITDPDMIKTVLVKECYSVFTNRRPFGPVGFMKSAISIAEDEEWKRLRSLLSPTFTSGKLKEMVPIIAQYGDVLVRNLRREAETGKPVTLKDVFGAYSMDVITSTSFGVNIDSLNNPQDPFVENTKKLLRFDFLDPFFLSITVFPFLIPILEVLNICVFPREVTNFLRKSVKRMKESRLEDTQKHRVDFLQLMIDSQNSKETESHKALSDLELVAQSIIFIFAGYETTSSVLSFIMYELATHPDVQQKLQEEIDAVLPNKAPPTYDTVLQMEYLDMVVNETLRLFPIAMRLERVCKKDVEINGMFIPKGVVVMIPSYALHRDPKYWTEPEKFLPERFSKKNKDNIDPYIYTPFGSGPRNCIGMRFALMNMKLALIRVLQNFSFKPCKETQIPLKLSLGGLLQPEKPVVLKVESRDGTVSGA

| pIC50 [1] | pIC50 [2] | Stability [3] [%] | solubility [4] [µM] | pIC50 [5] | pIC50 [6] | pIC50 [7] | Stability [8] [%] | pIC50 [9] | inhibition (INH) [1] [%] | inhibition (INH) [2] [%] | inhibition (INH) [9] [%] | Compound |
| --- | --- | --- | --- | --- | --- | --- | --- | --- | --- | --- | --- | --- |
| 6.70 | 6.00 | 64 | 5 (≈ 1.93 µg/mL) | 5.66 | 5.41 | < 5.00 | 8 | < 5.00 |  |  |  | COC(=O)C1=C(Cn2ccnc2)NC(C)=C(C#N)C1c1ccc(F)cc1Cl (stereo not given) |
|  |  | 14 | 10 (≈ 3.21 µg/mL) | 5.29 | 6.52 | 6.05 | 37 |  | 40 | 44 | 0 | COC(=O)C1=C(C)NC(C)=C(C#N)C1c1ccc(F)cc1Cl (stereo not given) |
| 5.92 | 5.72 | 60 | 31 (≈ 12.1 µg/mL) | 5.89 | 5.57 | < 5.00 | 3 | < 5.00 |  |  |  | COC(=O)C1=C(Cn2cnnn2)NC(C)=C(C#N)C1c1ccc(F)cc1Cl (stereo not given) |
|  |  | 13 | < 5 | 5.80 | 6.52 | 6.70 | 36 |  | 71 | 83 | 19 | CCCC1=C(C(=O)OC)C(c2ccccc2Cl)C(C#N)=C(C)N1 (stereo not given) |

| Compound | pIC50 [1] | pIC50 [2] | Stability [3] [%] | solubility [4] [µM] | pIC50 [5] | pIC50 [6] | pIC50 [7] | Stability [8] [%] | pIC50 [9] | inhibition (INH) [1] [%] | inhibition (INH) [2] [%] | inhibition (INH) [9] [%] |
| --- | --- | --- | --- | --- | --- | --- | --- | --- | --- | --- | --- | --- |
| COC(=O)C1=C(Cn2cncn2)NC(C)=C(C#N)C1c1ccc(F)cc1Cl (stereo not given) | 6.10 | 7.00 | 34 | > 5 | 5.54 | 5.34 | 5.15 | 9 | < 5.00 |  |  |  |
